The results in this text go back to ChEMBL document CHEMBL1130764, “Synthesis of a potent wide-spectrum serotonin-, norepinephrine-, dopamine-reuptake inhibitor (SNDRI) and a species-selective dopamine-reuptake inhibitor based on the gamma-amino alcohol functional group” (Bioorg Med Chem Lett, 1998).

In experiment [1] the target is Glutamate NMDA receptor. The experiment is described as follows: Inhibition of N-methyl-D-aspartate (NMDA) Receptor, by the displacement of [3H]MK-801 in rat brain membranes. In kind it is cell membranes. In general terms: In a radioligand displacement assay an active substance lowers the binding of a labelled ligand.
Experiment [2] has as its target T1, Sodium-dependent dopamine transporter (Homo sapiens, UniProt Q01959). The experiment is described as follows: Equilibrium dissociation constant (KD) for Competitive binding between [3H]WIN-35428 and the compound at human transporter-hDAT.
Experiment [3] addresses Sodium-dependent noradrenaline transporter (Homo sapiens, UniProt P23975).
Experiment [4] has as its target Sodium-dependent dopamine transporter (Rattus norvegicus, UniProt P23977). The experiment in a line: Inhibition of [3H]- DA reuptake into rat striatal synaptosomes. In kind it is subcellular, Brain.
In experiment [5] the target is Norepinephrine transporter (Rattus norvegicus, UniProt Q9WTR4). In kind it is subcellular, Hippocampus.
The species entered for another experiment is Rattus norvegicus. The experiment in a line: Compound was evaluated for Dopamine reuptake inhibition in rat striatal synaptosomes. In kind it is functional, Brain.
Experiment [6] has as its target T1, Sodium-dependent dopamine transporter. The experiment is described as follows: Equilibrium dissociation constant (KD) for Competitive binding between [3H]WIN-35428 and the compound at human transporter -hDAT.
Experiment [7] has as its target Glutamate NMDA receptor. The experiment is described as follows: Compound was evaluated for noncompetitive inhibition of N-methyl-D-aspartate (NMDA) Receptor by the displacement of [3H]MK-801 in rat brain membranes. In kind it is cell membranes.

Chain of Sodium-dependent dopamine transporter (Rattus norvegicus, UniProt P23977) (P23977 whole entry): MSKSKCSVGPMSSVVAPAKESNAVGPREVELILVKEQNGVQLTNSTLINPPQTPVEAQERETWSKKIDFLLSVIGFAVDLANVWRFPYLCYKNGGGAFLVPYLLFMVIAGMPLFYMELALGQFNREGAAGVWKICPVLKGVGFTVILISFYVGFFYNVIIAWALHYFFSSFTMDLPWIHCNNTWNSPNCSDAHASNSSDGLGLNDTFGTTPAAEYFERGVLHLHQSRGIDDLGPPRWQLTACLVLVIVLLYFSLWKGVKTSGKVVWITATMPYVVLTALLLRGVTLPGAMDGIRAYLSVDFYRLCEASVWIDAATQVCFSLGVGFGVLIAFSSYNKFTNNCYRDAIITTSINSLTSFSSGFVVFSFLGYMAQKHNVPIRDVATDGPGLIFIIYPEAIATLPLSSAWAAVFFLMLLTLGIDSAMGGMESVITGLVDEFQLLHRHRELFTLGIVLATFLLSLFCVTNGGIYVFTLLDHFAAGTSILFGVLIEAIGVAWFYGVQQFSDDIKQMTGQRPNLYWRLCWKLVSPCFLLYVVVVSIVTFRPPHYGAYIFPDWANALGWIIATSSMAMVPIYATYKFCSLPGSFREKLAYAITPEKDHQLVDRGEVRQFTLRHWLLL
T1 sequence (Q01959 whole entry): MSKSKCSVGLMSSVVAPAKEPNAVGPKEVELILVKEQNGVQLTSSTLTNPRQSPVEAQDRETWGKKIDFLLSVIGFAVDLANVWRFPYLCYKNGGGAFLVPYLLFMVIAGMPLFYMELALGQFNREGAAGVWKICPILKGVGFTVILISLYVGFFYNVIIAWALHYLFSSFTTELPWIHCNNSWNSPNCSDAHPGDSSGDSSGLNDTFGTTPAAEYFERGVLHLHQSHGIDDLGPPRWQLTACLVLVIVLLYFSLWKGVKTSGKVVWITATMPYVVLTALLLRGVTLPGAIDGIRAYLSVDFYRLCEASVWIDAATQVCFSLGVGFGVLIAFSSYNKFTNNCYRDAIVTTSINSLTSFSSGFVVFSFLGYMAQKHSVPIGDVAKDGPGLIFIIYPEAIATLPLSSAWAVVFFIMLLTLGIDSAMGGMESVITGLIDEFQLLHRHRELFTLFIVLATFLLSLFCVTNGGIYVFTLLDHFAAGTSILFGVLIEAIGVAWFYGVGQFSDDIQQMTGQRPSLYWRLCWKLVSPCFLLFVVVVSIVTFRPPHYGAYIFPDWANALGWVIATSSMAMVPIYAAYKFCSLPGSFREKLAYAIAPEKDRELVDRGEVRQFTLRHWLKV
Chain of Norepinephrine transporter (Q9WTR4 whole entry): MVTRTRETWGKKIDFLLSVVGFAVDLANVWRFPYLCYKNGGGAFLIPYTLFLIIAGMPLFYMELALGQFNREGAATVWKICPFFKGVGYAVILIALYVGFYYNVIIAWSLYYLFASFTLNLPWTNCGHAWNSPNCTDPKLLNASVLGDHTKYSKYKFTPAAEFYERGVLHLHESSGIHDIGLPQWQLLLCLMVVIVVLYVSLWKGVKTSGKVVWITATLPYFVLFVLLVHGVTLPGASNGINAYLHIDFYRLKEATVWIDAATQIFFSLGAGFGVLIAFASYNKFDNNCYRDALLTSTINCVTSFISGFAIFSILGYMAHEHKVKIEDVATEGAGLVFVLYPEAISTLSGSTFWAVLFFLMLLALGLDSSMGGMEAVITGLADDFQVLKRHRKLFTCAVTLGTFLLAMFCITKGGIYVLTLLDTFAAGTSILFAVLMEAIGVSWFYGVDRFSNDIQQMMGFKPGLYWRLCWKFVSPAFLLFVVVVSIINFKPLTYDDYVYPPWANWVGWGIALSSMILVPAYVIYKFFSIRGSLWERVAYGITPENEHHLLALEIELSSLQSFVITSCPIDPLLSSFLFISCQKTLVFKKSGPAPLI
Chain of Sodium-dependent noradrenaline transporter (P23975 whole entry): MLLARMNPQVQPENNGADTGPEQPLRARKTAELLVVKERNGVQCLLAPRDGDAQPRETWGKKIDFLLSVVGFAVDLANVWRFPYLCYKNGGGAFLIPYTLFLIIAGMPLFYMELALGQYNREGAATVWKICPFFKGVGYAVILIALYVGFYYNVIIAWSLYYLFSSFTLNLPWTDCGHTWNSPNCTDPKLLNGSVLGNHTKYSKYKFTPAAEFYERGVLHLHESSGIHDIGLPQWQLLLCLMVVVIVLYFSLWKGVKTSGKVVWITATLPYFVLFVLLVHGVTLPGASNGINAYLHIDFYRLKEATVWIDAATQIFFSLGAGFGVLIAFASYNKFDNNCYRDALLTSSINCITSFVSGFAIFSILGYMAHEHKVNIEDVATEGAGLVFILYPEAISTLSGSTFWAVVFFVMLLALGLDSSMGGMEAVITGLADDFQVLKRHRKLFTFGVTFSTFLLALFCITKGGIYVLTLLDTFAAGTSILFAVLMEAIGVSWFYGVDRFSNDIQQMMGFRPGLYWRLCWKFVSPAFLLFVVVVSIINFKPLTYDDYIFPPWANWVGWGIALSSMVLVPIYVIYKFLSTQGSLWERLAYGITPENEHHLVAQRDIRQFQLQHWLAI

A word on the IC50: it is the concentration needed to halve the response being measured. Higher therefore signals weaker potency. Broadly, the Kd is the constant that tells how readily two partners part at equilibrium. Low readings indicate tighter binding, high ones weaker binding. What is called Ki is the dissociation constant of the complex between target and ligand, obtained from inhibition or displacement. At Glutamate NMDA receptor [1], `COc1ccc([C@H](CN(C)C)[C@@H](O)C2CCCCC2)cc1` (racemic) showed an IC50 of more than 200 µM. Besides, the Kd came out at 3.5 µM in experiment [2] and 1.8 µM in experiment [3]. Also, the values for the inhibition constant Ki in experiment [4] and in experiment [5] were 0.64 µM and 0.22 µM, respectively.

`CN(C)C[C@@H](c1ccc2ccccc2c1)[C@@H](O)c1ccccc1` (racemic) yielded a half-inhibitory concentration (IC50) on Glutamate NMDA receptor [1] of 143 µM. The compound further displayed a Kd in experiment [2] of 0.07 µM.

As to `Cc1cc(C)c([C@H](O)[C@@H](CN)c2ccccc2)c(C)c1` (racemic), the 50% inhibitory concentration (IC50) at Glutamate NMDA receptor [1] came out at 63 µM. Moreover, the Kd turned out to be 0.34 µM in experiment [2] and 22.5 µM in experiment [3]. In addition, the Ki was 5.31 µM in experiment [4] and 8.6 µM in experiment [5].

Turning to `NC[C@@H](c1ccc2ccccc2c1)[C@@H](O)c1ccccc1` (racemic), at Glutamate NMDA receptor [1], the half-maximal inhibitory concentration (IC50) came out at 65 µM. For the same compound, the equilibrium dissociation constant (Kd) in experiment [2] was 0.14 µM.

At Glutamate NMDA receptor [1], `COc1ccc([C@H](CN)[C@@H](O)C2CCCCC2)cc1` (racemic) came in with an IC50 of 84 µM. Besides, the Kd in experiment [2] amounted to 4.31 µM; in experiment [3] it was 1.54 µM. For the same compound, the results for the Ki in experiment [4] and in experiment [5] were 1.46 µM and 0.33 µM, respectively.

As for `CN(C)C[C@@H](c1ccccc1)[C@@H](O)C(C)(C)C` (racemic), the IC50 on Glutamate NMDA receptor [1] turned out to be 121 µM. Besides, the Kd in experiment [2] stood at 21.4 µM; in experiment [3] it was 3.43 µM. Also, the Ki in experiment [4] was 1.2 µM; in experiment [5] it was 0.83 µM.

At Glutamate NMDA receptor [1], `NC[C@@H](c1ccccc1)[C@@H](O)c1ccccc1` (racemic) had a 50% inhibitory concentration (IC50) of 5.6 µM. Further, the Kd came to 24 µM in experiment [2] and 12.5 µM in experiment [3]. Also, the inhibition constant (Ki) came to 6.6 µM in experiment [4] and 5.78 µM in experiment [5].

`CN(C)C[C@@H](c1ccc2ccccc2c1)[C@@H](O)C(C)(C)C` (racemic): the IC50 on Glutamate NMDA receptor [1] turned out to be 21 µM. In addition, the values for the dissociation constant (Kd) in experiment [2] and in experiment [3] were 0.34 µM and 0.0299 µM, respectively. For the same compound, the Ki turned out to be 0.06 µM in experiment [4] and 0.01 µM in experiment [5].

`Cc1cc(C)c([C@H](O)[C@@H](CN(C)C)c2ccccc2)c(C)c1` (racemic) returned a half-inhibitory concentration (IC50) on Glutamate NMDA receptor [1] of more than 200 µM. Further, the Kd in experiment [2] was 42 µM; in experiment [3] it was 35.8 µM. The inhibition constant (Ki) in experiment [4] amounted to 4.88 µM; in experiment [5], 8.5 µM.

As to `CC(C)(C)[C@H](O)[C@@H](CN)c1ccc2ccccc2c1` (racemic), the results for the dissociation constant Kd (in the experiment listed under Rattus norvegicus; in experiment [2]; in experiment [3]) were 0.278 µM, 27 µM and 0.055 µM, respectively. For the same compound, the 50% inhibitory concentration (IC50) at Glutamate NMDA receptor [1] is 3 µM. The Ki in experiment [4] turned out to be 0.12 µM.

As for `CC(C)(C)[C@H](O)[C@@H](CN)c1ccccc1` (racemic), the IC50 on Glutamate NMDA receptor [1] amounted to 14 µM. Further, the Kd in experiment [2] was determined as 7.26 µM; in experiment [3] it was 47.9 µM. The Ki came out at 4.57 µM in experiment [4] and 3.8 µM in experiment [5].

Regarding `CN(C)C[C@@H](c1ccccc1)[C@@H](O)c1ccccc1` (racemic), the dissociation constant Kd in experiment [6] was 12 µM; in experiment [3] it was 2.25 µM. Further, the inhibition constant Ki in experiment [4] is 1.55 µM; in experiment [5], 0.99 µM. Further, the concentration for half-maximal inhibition (IC50) at Glutamate NMDA receptor [7] was 47 µM.

As for `CCOc1ccccc1OCC1CNCCO1` (racemic) [VILOXAZINE], the dissociation constant (Kd) in experiment [2] and in experiment [3] was 0.155 µM in each case. Besides, the inhibition constant Ki in experiment [4] was found to be 48 µM; in experiment [5], 0.17 µM.

Take `CCc1nn(CCCN2CCN(c3cccc(Cl)c3)CC2)c(=O)n1CCOc1ccccc1` [NEFAZODONE]: the inhibition constant (Ki) in experiment [4] worked out at 2.38 µM.
